We go through ten compounds from ChEMBL document CHEMBL1148710, “Alpha2-adrenoreceptors profile modulation. 3.1 (R)-(+)-m-nitrobiphenyline, a new efficient and alpha2C-subtype selective agonist” (J Med Chem, 2007).

Each structure is given as a SMILES string. Active and inactive are the calls of the source. No cut-off for these calls is given here. A value given as a limit tells only on which side of the number the result lay.

In experiment [1] the target is T1, Alpha-2B adrenergic receptor (Homo sapiens) (UniProt P18089).
T1 sequence (whole entry): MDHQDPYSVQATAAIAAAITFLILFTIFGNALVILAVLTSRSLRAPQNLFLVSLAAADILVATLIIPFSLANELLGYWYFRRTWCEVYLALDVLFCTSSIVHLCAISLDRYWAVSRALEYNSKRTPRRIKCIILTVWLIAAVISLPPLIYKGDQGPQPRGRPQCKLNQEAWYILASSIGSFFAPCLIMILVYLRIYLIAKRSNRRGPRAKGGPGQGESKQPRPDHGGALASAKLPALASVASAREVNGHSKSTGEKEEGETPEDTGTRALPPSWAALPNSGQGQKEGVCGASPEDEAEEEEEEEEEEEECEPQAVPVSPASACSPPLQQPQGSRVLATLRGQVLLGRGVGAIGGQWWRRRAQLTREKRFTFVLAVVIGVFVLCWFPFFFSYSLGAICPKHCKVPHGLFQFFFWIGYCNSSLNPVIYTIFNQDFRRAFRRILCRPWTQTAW
Kind of experiment: (§1) Agonistic potency at human adrenergic alpha-2B receptor expressed in CHO cells assessed as forskolin-induced cAMP accumulation. In kind it is functional, cell-based.

Experiment [2] concerns the target T2, Alpha-2A adrenergic receptor (Homo sapiens) (UniProt P08913).
T2 sequence (whole entry): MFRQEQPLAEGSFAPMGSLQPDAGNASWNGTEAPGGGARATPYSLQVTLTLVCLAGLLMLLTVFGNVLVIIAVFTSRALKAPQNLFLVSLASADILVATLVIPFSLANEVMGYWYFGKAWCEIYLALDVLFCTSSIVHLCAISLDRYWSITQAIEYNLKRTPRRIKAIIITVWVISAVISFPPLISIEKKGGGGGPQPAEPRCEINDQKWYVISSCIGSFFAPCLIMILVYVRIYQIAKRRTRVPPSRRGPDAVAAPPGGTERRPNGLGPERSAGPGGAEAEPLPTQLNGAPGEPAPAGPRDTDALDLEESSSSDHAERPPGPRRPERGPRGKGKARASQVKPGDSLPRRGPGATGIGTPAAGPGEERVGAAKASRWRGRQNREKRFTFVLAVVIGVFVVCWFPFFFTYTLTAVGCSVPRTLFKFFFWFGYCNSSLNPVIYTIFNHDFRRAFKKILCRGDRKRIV
The experiment can be described thus: Intrinsic activity at human adrenergic alpha-2A receptor expressed in CHO cells assessed as forskolin-induced cAMP accumulation relative to (-)-noradrenaline. In kind it is functional, cell-based.

Experiment [3] has as its target T1, Alpha-2B adrenergic receptor (Homo sapiens). Kind of experiment: Intrinsic activity at human adrenergic alpha2B receptor expressed in CHO cells assessed as forskolin-induced cAMP accumulation relative to (-)- noradrenaline. Type of experiment: functional, cell-based.
Experiment [4] deals with T3, Alpha-2C adrenergic receptor (Homo sapiens) (UniProt P18825).
T3 sequence (whole entry): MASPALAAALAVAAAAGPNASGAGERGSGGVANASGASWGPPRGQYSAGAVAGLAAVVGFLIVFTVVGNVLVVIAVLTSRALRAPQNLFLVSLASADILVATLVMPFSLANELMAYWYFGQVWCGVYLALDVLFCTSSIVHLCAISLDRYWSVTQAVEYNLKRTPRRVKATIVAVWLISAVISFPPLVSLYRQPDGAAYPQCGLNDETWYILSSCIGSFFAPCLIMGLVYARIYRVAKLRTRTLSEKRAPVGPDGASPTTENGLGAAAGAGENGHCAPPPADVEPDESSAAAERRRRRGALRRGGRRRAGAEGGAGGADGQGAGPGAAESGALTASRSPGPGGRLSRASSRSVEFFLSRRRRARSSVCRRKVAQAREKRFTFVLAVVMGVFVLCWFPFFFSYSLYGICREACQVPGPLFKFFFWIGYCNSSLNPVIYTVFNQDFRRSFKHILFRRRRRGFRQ
The experiment can be described thus: Intrinsic activity at human adrenergic Alpha-2C receptor expressed in CHO cells assessed as forskolin-induced cAMP accumulation relative to (-)- noradrenaline. Type of experiment: functional, cell-based.

Experiment [5] addresses T4, Alpha-2B adrenergic receptor (Homo sapiens, UniProt P18089).
T4 sequence (P18089 whole entry): T1 sequence (whole entry)
The description is as §1. In kind it is functional, cell-based.

Experiment [6] has as its target T5, Alpha-2A adrenergic receptor (Homo sapiens, UniProt P08913).
T5 sequence (P08913 whole entry): T2 sequence (whole entry)
Kind of experiment: Agonistic potency at human adrenergic alpha-2A receptor expressed in CHO cells assessed as forskolin-induced cAMP accumulation.

In experiment [7] the target is T5, Alpha-2A adrenergic receptor. Kind of experiment: Displacement of [3H]RX 821002 from human adrenergic alpha2A receptor expressed in CHO cells. Type of experiment: cell-based.
The target of experiment [8] is T6, Alpha-2C adrenergic receptor (Homo sapiens, UniProt P18825).
T6 sequence (P18825 whole entry): T3 sequence (whole entry)
The experiment can be described thus: biochemical.
Description: (§2) Displacement of [3H]RX 821002 from human adrenergic Alpha-2C receptor expressed in CHO cells

Experiment [9] addresses T6, Alpha-2C adrenergic receptor. Kind of experiment: Agonistic potency at human adrenergic Alpha-2C receptor expressed in CHO cells assessed as forskolin-induced cAMP accumulation. Type of experiment: functional, cell-based.
The target of experiment [10] is T4, Alpha-2B adrenergic receptor. The experiment can be described thus: Displacement of [3H]RX 821002 from human adrenergic alpha-2B receptor expressed in CHO cells. In kind it is cell-based.
Experiment [11] concerns the target T3, Alpha-2C adrenergic receptor (Homo sapiens). The following applies: CHO.
Description: as §2
In experiment [12] the target is T1, Alpha-2B adrenergic receptor (Homo sapiens). Kind of experiment: Antagonistic potency at human adrenergic alpha-2B receptor expressed in CHO cells assessed as forskolin-induced cAMP accumulation. In kind it is functional, cell-based.
Experiment [13] addresses T6, Alpha-2C adrenergic receptor. The experiment can be described thus: Displacement of [3H]RX 821002 from human adrenergic alpha-2c receptor expressed in CHO cells in presence of GppNHp/Na. In kind it is cell-based.
In experiment [14] the target is T2, Alpha-2A adrenergic receptor (Homo sapiens). The settings on record: CHO.
Description: Antagonistic potency at human adrenergic alpha2A receptor expressed in CHO cells assessed as forskolin-induced cAMP accumulation

Consider `CC(Oc1ccccc1-c1cccc([N+](=O)[O-])c1)C1=NCCN1` (racemic), for which, in experiment [1], the result was inactive. In addition, the Intrinsic activity was under 0.3 in experiment [2], under 0.3 in [3] and 0.6 in experiment [4].
As for `C[C@@H](Oc1ccccc1-c1ccccc1)C1=NCCN1`, the EC50 in experiment [5] was 100000 nM; in experiment [6], 28800 nM; in experiment [9] (read-out: Log EC50 (converted)), 112 nM. Moreover, the inhibitory constant (Ki) was 186 nM in [7], 977 nM in experiment [8] and 1260 nM in [10]. The Intrinsic activity was found to be 0.4 in [2], 0.4 in experiment [3] and 0.7 in experiment [4].
For the compound `CC(Oc1ccccc1-c1cccc(O)c1)C1=NCCN1` (racemic), the Intrinsic activity in experiment [2] is under 0.3; in experiment [3], 0.5; in experiment [4], 1.15.
As to `C[C@@H](Oc1ccccc1-c1cccc([N+](=O)[O-])c1)C1=NCCN1`, the Ki was 81.3 nM in experiment [7], 257 nM in [8], 363 nM in [13] and 741 nM in experiment [10]. Moreover, in experiment [11], the pKiH worked out at 8.21. In experiment [11], this compound registered a pKiL of 6.42. Moreover, the EC50 in [9] (read-out: EC50) was 38 nM; in experiment [9] (read-out: Log EC50 (converted)) it was 10 nM. Also, in experiment [4], the Intrinsic activity is 0.8. The negative logarithm of the Kb (pKb) in [12] worked out at 6.07; in experiment [14] it was 7.11.
On to `CC(Oc1ccccc1-c1cccnc1)C1=NCCN1` (racemic), for which the Intrinsic activity in [2] turned out to be 0.5; in experiment [3], 0.5; in experiment [4], 1.
As for `CC(Oc1ccccc1-c1cccc(F)c1)C1=NCCN1` (racemic), the result in [1] was inactive. Also, the Intrinsic activity was 0.58 in experiment [2], under 0.3 in [3] and 1.15 in experiment [4].
For `C[C@H](Oc1ccccc1-c1ccccc1)C1=NCCN1`, the EC50 in experiment [5] is 692 nM; in experiment [6], 74.1 nM; in experiment [9] (read-out: Log EC50 (converted)), 18.6 nM. In addition, the inhibition constant (Ki) is 91.2 nM in experiment [7], 302 nM in experiment [8] and 589 nM in experiment [10]. Further, the Intrinsic activity is 0.8 in experiment [2], 0.65 in experiment [3] and 0.9 in [4].
Take `C[C@H](Oc1ccccc1-c1cccc([N+](=O)[O-])c1)C1=NCCN1`: the inhibition constant (Ki) is 72.4 nM in experiment [7], 537 nM in experiment [8] and 1580 nM in [10]. The EC50 in experiment [9] (read-out: Log EC50 (converted)) was 741 nM. Besides, the Intrinsic activity in [4] worked out at 0.45. Moreover, the figures for the pKb in experiment [12] and in experiment [14] were 5.93 and 7.35, respectively.
In [11], `Cc1cccc(C(C)c2c[nH]cn2)c1C` (single isomer, unassigned) [DEXMEDETOMIDINE] came in with a pKiH of 10 and a pKiL of 8.26. The Ki in experiment [13] is 30.9 nM.
`CC(Oc1ccccc1-c1ccccc1)C1=NCCN1` (racemic): the Intrinsic activity in experiment [2] is 0.7; in [3], 0.5; in experiment [4], 0.8.
